These molecules were tested against human MDM2 protein (amino acids 2-188) (Homo sapiens (Human), UniProt Q00987) (assay: TR-FRET assay, p53-MDM2 Assay 2 (modified)). Settings: TR-FRET; 0.1 nM MDM2, 0.1 nM Europium labeled streptavidin, Tecan genios Pro reader; read-out: IC50 p53-MDM2 Assay 2.
Type: binding
How it was run: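 Biotinylated human MDM2 (aa 2–188, 1.25 nM) was preincubated 15 min at room temperature with 0.625 nM Eu-streptavidin, then 10 nM Cy5-p53 peptide (aa 18–26) added for 15 min. TR-FRET ratio 665/620 nm (excitation 340 nm) was read; IC50 came from curve fitting.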

Chain of human MDM2 protein (amino acids 2-188) (Q00987 2-188): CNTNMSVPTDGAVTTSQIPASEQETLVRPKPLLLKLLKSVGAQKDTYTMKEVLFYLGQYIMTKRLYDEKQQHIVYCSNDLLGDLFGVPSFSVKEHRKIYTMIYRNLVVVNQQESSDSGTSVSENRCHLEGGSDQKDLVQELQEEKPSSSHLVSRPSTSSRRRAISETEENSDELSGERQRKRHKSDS

Row | Structure (SMILES) | IC50
1 | COc1ncc(-c2cc3c(n2C(C)C)C(c2ccc(Cl)cn2)N(c2ccc(F)c(Cl)c2)C3=O)c(OC)n1 (stereo not shown) [Example 214, 5-(3-Chloro-4-fluoro-phenyl)-6-(5-chloro-pyridin-2-yl)-2-(2,4-dimethoxy-pyrimidin-5-yl)-1-isopropyl-5,6-dihydro-1H-pyrrolo[3,4-b]pyrrol-4-one] | 1.89 nM
2 | COc1ncc(-c2cc3c(n2C(C)C)[C@H](c2ccc(C#N)cc2)N(c2cc(Cl)cn(C)c2=O)C3=O)c(OC)n1 [Example 215, 4-[(S)-5-(5-Chloro-1-methyl-2-oxo-1,2-dihydro-pyridin-3-yl)-2-(2,4-dimethoxy-Pyrimidin-5-yl)-1-isopropyl-4-oxo-1,4,5,6-tetrahydro-pyrrolo[3,4-b]pyrrol-6-yl]-benzonitrile] | 0.527 nM
3 | COc1ncc(-c2cc3c(n2C(C)C)[C@@H](c2ccc(C#N)cc2)N(c2cc(Cl)cn(C)c2=O)C3=O)c(OC)n1 [Example 216, 4-[(R)-5-(5-Chloro-1-methyl-2-oxo-1,2-dihydro-pyridin-3-yl)-2-(2,4-dimethoxy-pyrimidin-5-yl)-1-isopropyl-4-oxo-1,4,5,6-tetrahydro-pyrrolo[3,4-b]pyrrol-6-yl]-benzonitrile] | 883 nM
4 | [2H]C([2H])([2H])Oc1ncc(-c2cc3c(n2C(C)C)[C@H](c2ccc(Cl)cc2)N(c2cc(Cl)c(=O)n(C)c2)C3=O)c(OC([2H])([2H])[2H])n1 [Example 218, (S)-5-(5-Chloro-1-methyl-6-oxo-1,6-dihydro-pyridin-3-yl)-6-(4-chloro-phenyl)-2-(2,4-d6-dimethoxy-pyrimidin-5-yl)-1-isopropyl-5,6-dihydro-1H-pyrrolo[3,4-b]pyrrol-4-one] | 0.106 nM
5 | [2H]C([2H])([2H])Oc1ncc(-c2cc3c(n2C(C)C)[C@@H](c2ccc(Cl)cc2)N(c2cc(Cl)c(=O)n(C)c2)C3=O)c(OC([2H])([2H])[2H])n1 [Example 219, (R)-5-(5-Chloro-1-methyl-6-oxo-1,6-dihydro-pyridin-3-yl)-6-(4-chloro-phenyl)-2-(2,4-d6-dimethoxy-pyrimidin-5-yl)-1-isopropyl-5,6-dihydro-1H-pyrrolo[3,4-b]pyrrol-4-one] | 28.3 nM
6 | CCOC(=O)c1c2c(n(C(C)C)c1-c1cnc(OC)nc1OC)C(c1ccc(Cl)cc1)N(c1cc(Cl)c(=O)n(C)c1)C2=O (stereo not shown) [Example 220, 5-(5-Chloro-1-methyl-6-oxo-1,6-dihydro-pyridin-3-yl)-6-(4-chloro-phenyl)-2-(2,4-dimethoxy-pyrimidin-5-yl)-1-isopropyl-4-oxo-1,4,5,6-tetrahydro-pyrrolo[3,4-b]pyrrole-3-carboxylic acid ethyl ester] | 0.134 nM
7 | COc1ncc(-c2c(C(=O)O)c3c(n2C(C)C)C(c2ccc(Cl)cc2)N(c2cc(Cl)c(=O)n(C)c2)C3=O)c(OC)n1 (stereo not shown) [Example 221, 5-(5-Chloro-1-methyl-6-oxo-1,6-dihydro-pyridin-3-yl)-6-(4-chloro-phenyl)-2-(2,4-dimethoxy-pyrimidin-5-yl)-1-isopropyl-4-oxo-1,4,5,6-tetrahydro-pyrrolo[3,4-b]pyrrole-3-carboxylic acid] | 0.14 nM
8 | COC[C@@H](C)n1c(-c2cnc(OC)nc2OC)cc2c1C(c1ccc(C#N)cc1)N(c1ccc(F)c(Cl)c1)C2=O (stereo partly drawn) [Example 222, 4-[(R,S)-5-(3-Chloro-4-fluoro-phenyl)-2-(2,4-dimethoxy-pyrimidin-5-yl)-1-((R)-2-methoxy-1-methyl-ethyl)-4-oxo-1,4,5,6-tetrahydro-pyrrolo[3,4-b]pyrrol-6-yl]-benzonitrile] | 0.303 nM
9 | COC[C@@H](C)n1c(-c2cnc(N)nc2OC)cc2c1C(c1ccc(C#N)cc1)N(c1ccc(F)c(Cl)c1)C2=O (stereo partly shown) [Example 223] | 0.631 nM
10 | COC[C@@H](C)n1c(-c2cnc(N)nc2OC)cc2c1C(c1ccc(Cl)cc1)N(c1ccc(F)c(Cl)c1)C2=O (stereo partly drawn) [Example 224, (R,S)-2-(2-Amino-4-methoxy-pyrimidin-5-yl)-5-(3-chloro-4-fluoro-phenyl)-6-(4-chloro-phenyl)-1-((R)-2-methoxy-1-methyl-ethyl)-5,6-dihydro-1H-pyrrolo[3,4-b]pyrrol-4-one] | 0.362 nM
11 | COC[C@@H](C)n1c(-c2cnc(OC)nc2OC)cc2c1C(c1ccc(Cl)cc1)N(c1cc(Cl)c(=O)n(C)c1)C2=O (stereo partly shown) [Example 225] | 0.277 nM
12 | COc1nc(N(C)C)ncc1-c1c(C(=O)O)c2c(n1C(C)C)C(c1ccc(Cl)cc1)N(c1cc(Cl)c(=O)n(C)c1)C2=O (stereo not shown) [Example 226, 5-(5-Chloro-1-methyl-6-oxo-1,6-dihydro-pyridin-3-yl)-6-(4-chloro-phenyl)-2-(2-dimethylamino-4-methoxy-pyrimidin-5-yl)-1-isopropyl-4-oxo-1,4,5,6-tetrahydro-pyrrolo[3,4-b]pyrrole-3-carboxylic acid] | 0.132 nM
13 | COc1nc(N(C)C)ncc1-c1cc2c(n1C(C)C)[C@H](c1ccc(Cl)c(F)c1)N(c1cc(Cl)c[nH]c1=O)C2=O [Example 227, (S)-6-(4-Chloro-3-fluoro-phenyl)-5-(5-chloro-2-oxo-1,2-dihydro-pyridin-3-yl)-2-(2-dimethylamino-4-methoxy-pyrimidin-5-yl)-1-isopropyl-5,6-dihydro-1H-pyrrolo[3,4-b]pyrrol-4-one] | 0.071 nM
14 | COc1nc(N(C)C)ncc1-c1cc2c(n1C(C)C)[C@@H](c1ccc(Cl)c(F)c1)N(c1cc(Cl)c[nH]c1=O)C2=O [Example 228, (R)-6-(4-Chloro-3-fluoro-phenyl)-5-(5-chloro-2-oxo-1,2-dihydro-pyridin-3-yl)-2-(2-dimethylamino-4-methoxy-pyrimidin-5-yl)-1-isopropyl-5,6-dihydro-1H-pyrrolo[3,4-b]pyrrol-4-one] | 48.7 nM
15 | COC[C@@H](C)n1c(-c2cnc(N)nc2OC)cc2c1[C@H](c1ccc(Cl)cc1)N(c1ccc(F)c(Cl)c1)C2=O [Example 229] | 0.078 nM
16 | COC[C@@H](C)n1c(-c2cnc(N)nc2OC)cc2c1[C@@H](c1ccc(Cl)cc1)N(c1ccc(F)c(Cl)c1)C2=O [Example 230, (R)-2-(2-Amino-4-methoxy-pyrimidin-5-yl)-5-(3-chloro-4-fluoro-phenyl)-6-(4-chloro-phenyl)-1-((R)-2-methoxy-1-methyl-ethyl)-5,6-dihydro-1H-pyrrolo[3,4-b]pyrrol-4-one] | 281 nM
17 | COc1nc(N(C)C)ncc1-c1cc2c(n1C(C)C)C(c1ccc(C#N)cc1)N(c1c(F)c(C)nn1C)C2=O (stereo not shown) [Example 231, 4-(2-(2-(Dimethylamino)-4-methoxypyrimidin-5-yl)-5-(4-fluoro-1,3-dimethyl-1H-pyrazol-5-yl)-1-isopropyl-4-oxo-1,4,5,6-tetrahydropyrrolo[3,4-b]ppyrrol-6-yl)benzonitrile] | 0.224 nM
18 | COc1nc(N(C)C)ncc1-c1cc2c(n1C(C)C)[C@H](c1ccc(C#N)cc1)N(c1cc(Cl)c(=O)n(C)c1)C2=O [Example 232, (S)-4-(5-(5-Chloro-1-methyl-6-oxo-1,6-dihydropyridin-3-yl)-2-(2-(dimethylamino)-4-methoxypyrimidin-5-yl)-1-isopropyl-4-oxo-1,4,5,6-tetrahydropyrrolo[3,4-b]pyrrol-6-yl)benzonitrile] | 0.069 nM
19 | COc1nc(N(C)C)ncc1-c1cc2c(n1C(C)C)[C@@H](c1ccc(C#N)cc1)N(c1cc(Cl)c(=O)n(C)c1)C2=O [Example 233, (R)-4-(5-(5-Chloro-1-methyl-6-oxo-1,6-dihydropyridin-3-yl)-2-(2-(dimethylamino)-4-methoxypyrimidin-5-yl)-1-isopropyl-4-oxo-1,4,5,6-tetrahydropyrrolo[3,4-b]pyrrol-6-yl)benzonitrile] | 60.2 nM

From patent publication US9365576B2, “Pyrrolopyrrolidinone compounds” (Novartis AG, priority 2012, dated 2016)
